Structures can show the parent of a compound that is named as a salt.
Tested on: hippocampus neurons
Test: inhibition of reduction in survival rate of neurons, hippocampus (number of surviving cells)
Type: cell-based, rat
Settings: Rattus norvegicus, Neuron, 72 h, control 100%, read-out: Inhibitory effect against reduction in survival rate of neurons (survival rate class); for viability at 10 µg/mL: 10^-5 g/ml; for viability at 1 µg/mL: 10^-6 g/ml; for viability at 0.1 µg/mL: 10^-7 g/ml; for viability at 0.01 µg/mL: 10^-8 g/ml; for viability at 0.001 µg/mL: 10^-9 g/ml
Protocol: From a rat at the 18th day of pregnancy (having an 18 -day old embryo) the uterus was aseptically removed under etherification, and the fetus was obtained. The whole brain was collected from the fetus. From the brain placed in an L-15 medium were removed under a microscope the hippocampus, striate body, septum, cerebral cortex, and cerebellum. They were respectively minced with a knife. The minced tissue was treated by the addition of trypsin (0.25%) and DNase (0.01%) for 30 minutes at 37° C. to thereby isolate cells. The thus-isolated cells were suspended in Eagle's MEM medium supplemented with 10% fetal calf serum, and inoculated at a concentration of 4×10^4 cells/cm^2 into wells of a 48-well plate which had been coated with poly-L-lysin in advance. Following incubation for 24 hours, the medium was replaced by a serum-free DMEM/F-12 medium containing the drug. After three-days' additional incubation (six days for the striate body), the cells were fixed, stained, and the number of surviving cells in each well was counted. Compounds (2) through (14) were tested analogously to Example 1 using hippocampus cells prepared in a manner similar to Example 1. As structural comparative compounds, the following compounds were used: 4H-pyran-4-one (hereinafter referred as Compound (15) and 3-methoxy-6 -hydroxymethyl-4H-pyran-4-one (hereinafter referred to as Compound (16)).

Row | SMILES | viability at 10 µg/mL [%] | viability at 1 µg/mL [%] | viability at 0.1 µg/mL [%] | viability at 0.01 µg/mL [%] | viability at 0.001 µg/mL [%]
1 | O=c1cc(C=Cc2ccccc2)occ1O [Compound (12), 3-Hydroxy-6-styryl-4H-pyran-4-one] | ≤ 90 | 110 to 130 | 110 to 130 | 90 to 110 | 90 to 110
2 | CCCCCc1oc(C)cc(=O)c1O [Compound (5), 3-Hydroxy-6-methyl-2-pentyl-4H-pyran-4-one] |  | ≤ 90 | 110 to 130 | 90 to 110 | 90 to 110
3 | CCCc1oc(C)cc(=O)c1O [Compound (4), 3-Hydroxy-6-methyl-2-propyl-4H-pyran-4-one] |  | 90 to 110 | 110 to 130 | 90 to 110 | 90 to 110
4 | Cc1cc(=O)c(O)c(CN(C)C)o1 [Compound (7), 3-Hydroxy-6-methyl-2-dimethylaminomethyl-4H-pyran-4-one-HCl] | 110 to 130 | 110 to 130 | 90 to 110 | 90 to 110 | 90 to 110
5 | O=C1C=C(CO)N=CC1O (centres unmarked) [Compound (14), 3-Hydroxy-6-hydroxymethyl-4-pyridone] | 110 to 130 | 90 to 110 | 90 to 110 | 90 to 110 | 90 to 110
6 | O=c1cc(CO)occ1O [Compound (8), 3-Hydroxy-6-hydroxymethyl-4H-pyran-4-one] | 110 to 130 | 110 to 130 | 90 to 110 | 90 to 110 | 90 to 110
7 | Cc1cc(=O)c(O)co1 [Compound (2), 3-Hydroxy-6-methyl-4H-pyran-4-one] | 130 to 150 | 110 to 130 | 90 to 110 | 90 to 110 | 90 to 110
8 | Cc1cc(=O)c(O)c(CO)o1 [Compound (6), 3-Hydroxy-6-methyl-2-hydroxymethyl-4H-pyran-4-one] | 110 to 130 | 110 to 130 | 110 to 130 | 90 to 110 | 90 to 110

— patent US5962480A, “Drug for ameliorating brain diseases” (Wakunaga Pharmaceutical Co., Ltd., priority 1995, dated 1999)
